Where two headings read alike, the source gives them in different places.
How the values were obtained:
[1] = cited from earlier work
[2] = cited from earlier work; remark: listed apart in the source
[3] = Blood activity clearance from venous blood samples (bi-exponential fit); assay type: in vivo, human
Method: Venous blood samples were drawn at 45 min, 85 min, 175 min, and 245 min post-injection. The activity concentrations of these samples were measured in the abovementioned well counter. No metabolite analysis of the samples was performed, since this is beyond the scope of this dosimetry study.
(§1) The uptake was fitted to a bi-exponential or mono-exponential function of time post-injection using the software SAAM II (The Epsilon Group, Charlottesville, VA, USA). This function is used to calculate the time-integrated activity coefficient (TIAC), i.e., total number of decays per administered activity. […] The cumulated activity in the urinary bladder was calculated in a similar way, using measured data for urine plus bladder content. ICRP uses 3.5-h voiding interval for calculating absorbed doses from radiopharmaceuticals; thus, the activity in the bladder is zeroed at 3.5 and 7 h post-injection, before calculating the cumulated activity in accordance with Eq. 2.
TIACs for the organs used in the dose calculations can be seen in Table 1. […] The fitted blood curve was calculated on pooled normalized data and forced through the point 100% at time zero.

[4] = Absorbed organ dose and effective dose calculation (IDAC-Dose 2.1, ICRP 133/103; Monte Carlo for eye lenses); assay type: in vivo, human
From the text: (§2) Volumes of interest (VOIs) were delineated for the kidneys, liver, lungs, spleen, salivary glands, and total body by a medical physicist and a radiologist using RayStation (RaySearch Laboratories, Stockholm, Sweden). Using the MICE Toolkit (Nonpi Medical AB, Umea, Sweden), the median VOI activity-concentration (Cmedian(t)) was extracted and used to calculate the fraction injected activity for each imaging session. For a specific VOI, the retention, U(t), in an organ with mass M [g], expressed as fraction of injected activity, is calculated as:1 Ut=Cmediant×M/A0 where A0 is the administered activity [Bq] and t is the time after administration. […] The remaining activity was assumed to be homogeneously distributed in the rest of the body, and the remaining activity in the body could therefore be calculated by subtracting the activities in the specific organ, blood, urinary bladder content, and urine from the decay-corrected administered activity.
as §1
The absorbed dose to the organs was calculated using the software IDAC-Dose 2.1 [22] which uses specific absorbed fractions for photons and electron from ICRP Publication 133 [19], […]
To calculate the dose to the lacrimal glands, spherical shape was assumed, with a mass of 0.7 g each, using the “sphere module” in IDAC-Dose 2.1. […] The lens of the eyes is a target organ in ICRP Publication 133 [19]; however, the lacrimal glands are not identified as source organs in the ICRP phantoms and an absorbed fraction is not presented in this report. Monte Carlo methods were therefore used to calculate absorbed fractions using the ICRP/ICRU voxel phantom for an adult. For the image activity concentration, the highest voxel was used, instead of the median. The reason for this is that the small size of the glands results in a significant “partial volume effect” [26].

[5] = PET/CT organ uptake and time-integrated activity coefficients after i.v. [^68Ga]PSMA-11; assay type: in vivo, human
Method: The PET/CT scanning was performed at the University Hospital of Umeå on a Discovery 690 [18] The first session, aimed to depict the fast tracer distribution, consisted of three head-to-thigh scans commencing at times 0, 10, and 20 min post-injection, followed by a head-to-toe whole-body scan approximately 30 min post-injection. The remaining three acquisitions were all head-to-toe scans, commencing at 90 min, 180 min, and 255 min post-injection. CT scans were acquired with 120 kV, 10 mA, 0.5 s/revolution, and 2.5-mm slice thickness, except for the whole-body scan at the first session which was acquired with 30 mA (Fig. 1) to provide adequate anatomical information. All PET scans were acquired using time-of-flight mode, with 60 s per bed position, and 11 slices bed overlap. PET images, corrected for attenuation and scatter, were reconstructed using the scanner implementation of the 3D iterative ordered subset expectation maximization (OSEM) reconstruction including time-of-flight (named VuePoint HD ViP) with 2 iterations, 24 subsets, 6.4-mm post-filter, and a 70-cm field-of-view, yielding a 128 × 128 matrix (5.5 × 5.5 × 3.27 mm^3 voxels). PET images were decay-corrected to start of each scan.
Urine was collected up to 4 h post-injection, and the total voided volume was weighed. From each voided volume, a 1-mL sample was weighed and radioactivity was measured using a well counter (NaI-scintillator), and the activity concentration in Bq/mL was calculated. The activity concentration and voided volume were used to calculate the total voided activity.
as §2, §1

[6] = bi-exponential fit, pooled normalized data
[7] = six participants, sphere of 0.7 g
[8] = median of six patients, ICRP/ICRU voxel phantom organ mass

## C[11C](=O)O [[^11C]Acetate]
[1]
  Effective dose: 0.0049 mSv/MBq

## C[N+](C)(C[18F])CCO [[^18F]Choline]
[1]
  Effective dose: 0.01 mSv/MBq

## O=C([O-])CN(CCN(CC(=O)[O-])Cc1cc(CCC(=O)NCCCCCC(=O)NCCCC[C@H](NC(=O)N[C@@H](CCC(=O)O)C(=O)O)C(=O)O)ccc1[O-])Cc1cc(CCC(=O)O)ccc1[O-].[68Ga+3].[OH3+] [[^68Ga]PSMA-11, ^68Ga-labeled Glu-NH-CO-NH-Lys(Ahx)-HBED-CC]
[2]; Afshar-Oromieh et al. ref 15
  Kidney dose: 0.262 mGy/MBq
[2]; Demirci et al. ref 16
  Kidney dose: 0.246 mGy/MBq
[2]; unit density sphere model, Demirci et al. ref 16
  Lacrimal glands absorbed dose: 0.04 ± 0.008 mGy/MBq
[3]; [6]
  Biological half-life in blood, fast component: 6.5 min
  Biological half-life in blood, slow component: 4.4 h
[3]; fast component
  Fraction of blood activity cleared with the 6.5 min half-life: 91%
[3]; slow component
  Fraction of blood activity cleared with the 4.4 h half-life: 9%
[4]; TIAC derived with measured organ volumes (liver mass 800–1200 g)
  Liver dose factor, conventional method: 0.034 mGy/MBq
[4]; administered activity of 2 MBq/kg to a person weighting 80 kg
  Effective dose per administration: 3.5 mSv
[4]; calculated for comparison using ICRP Publication 60
  Effective dose: 0.022 mSv/MBq
[4]; median, ICRP Publication 103, male component only
  Effective dose: 0.022 mSv/MBq
[4]; six participants
  Absorbed dose coefficient, Colon wall, Median: 0.014 mGy/MBq
  Absorbed dose coefficient, Colon wall, Range: 0.012–0.014 mGy/MBq
  Absorbed dose coefficient, Endosteum, Median: 0.011 mGy/MBq
  Absorbed dose coefficient, Endosteum, Range: 0.0095–0.011 mGy/MBq
  Absorbed dose coefficient, Esophagus, Median: 0.014 mGy/MBq
  Absorbed dose coefficient, Esophagus, Range: 0.011–0.015 mGy/MBq
  Absorbed dose coefficient, Kidneys, Median: 0.24 mGy/MBq
  Absorbed dose coefficient, Kidneys, Range: 0.20–0.28 mGy/MBq
  Absorbed dose coefficient, Liver, Median: 0.053 mGy/MBq
  Absorbed dose coefficient, Liver, Range: 0.038–0.071 mGy/MBq
  Absorbed dose coefficient, Lungs, Median: 0.016 mGy/MBq
  Absorbed dose coefficient, Lungs, Range: 0.013–0.017 mGy/MBq
  Absorbed dose coefficient, Red bone marrow, Median: 0.015 mGy/MBq
  Absorbed dose coefficient, Red bone marrow, Range: 0.014–0.015 mGy/MBq
  Absorbed dose coefficient, Salivary glands, Median: 0.089 mGy/MBq
  Absorbed dose coefficient, Salivary glands, Range: 0.074–0.15 mGy/MBq
  Absorbed dose coefficient, Skin, Median: 0.0067 mGy/MBq
  Absorbed dose coefficient, Skin, Range: 0.0059–0.0069 mGy/MBq
  Absorbed dose coefficient, Spleen, Median: 0.046 mGy/MBq
  Absorbed dose coefficient, Spleen, Range: 0.030–0.10 mGy/MBq
  Absorbed dose coefficient, Stomach wall, Median: 0.015 mGy/MBq
  Absorbed dose coefficient, Stomach wall, Range: 0.015–0.017 mGy/MBq
  Absorbed dose coefficient, Testes, Median: 0.0087 mGy/MBq
  Absorbed dose coefficient, Testes, Range: 0.0074–0.0089 mGy/MBq
  Absorbed dose coefficient, Thyroid, Median: 0.010 mGy/MBq
  Absorbed dose coefficient, Thyroid, Range: 0.0090–0.010 mGy/MBq
  Absorbed dose coefficient, Urinary bladder wall, Median: 0.057 mGy/MBq
  Absorbed dose coefficient, Urinary bladder wall, Range: 0.028–0.084 mGy/MBq
[4]; six participants, Monte Carlo methods for lacrimal gland contribution
  Absorbed dose coefficient, Eye lenses, Median: 0.0051 mGy/MBq
[4]; [7]
  Absorbed dose coefficient, Lacrimal glands, Median: 0.11 mGy/MBq
  Absorbed dose coefficient, Lacrimal glands, Range: 0.043–0.2 mGy/MBq
[5]; intravenous injection, PET/CT
  Accumulation in kidneys: 7%
  Accumulation in liver: 15%
  Accumulation in salivary glands: 0.5%
  Accumulation in spleen: 2%
[5]; measured organ volumes (liver mass 800–1200 g)
  Liver TIAC, conventional method: 0.10 h
[5]; median of six patients
  Time-integrated activity coefficient, Blood, Median: 0.27 h
[5]; median of six patients, 3.5-h voiding interval
  Time-integrated activity coefficient, Urinary bladder contents, Median: 0.11 h
[5]; [8]
  Time-integrated activity coefficient, Kidneys, Median: 0.22 h
  Time-integrated activity coefficient, Liver, Median: 0.23 h
  Time-integrated activity coefficient, Spleen, Median: 0.021 h
[5]; median of six patients, estimated directly from uptake data (Eq. 2)
  Time-integrated activity coefficient, Salivary glands, Median: 0.020 h
[5]; median of six patients, highest voxel x factor 2, 0.7 g each
  Time-integrated activity coefficient, Lacrimal glands, Median: 0.00053 h
[5]; median of six patients, rest of the body
  Time-integrated activity coefficient, Remainder, Median: 0.68 h
[5]; patient P1
  Time-integrated activity coefficient, Blood, P1: 0.32 h
  Time-integrated activity coefficient, Kidneys, P1: 0.22 h
  Time-integrated activity coefficient, Lacrimal glands, P1: 0.00075 h
  Time-integrated activity coefficient, Liver, P1: 0.26 h
  Time-integrated activity coefficient, Remainder, P1: 0.51 h
  Time-integrated activity coefficient, Salivary glands, P1: 0.036 h
  Time-integrated activity coefficient, Spleen, P1: 0.049 h
  Time-integrated activity coefficient, Urinary bladder contents, P1: 0.12 h
[5]; patient P2
  Time-integrated activity coefficient, Blood, P2: 0.26 h
  Time-integrated activity coefficient, Kidneys, P2: 0.27 h
  Time-integrated activity coefficient, Lacrimal glands, P2: 0.00055 h
  Time-integrated activity coefficient, Liver, P2: 0.15 h
  Time-integrated activity coefficient, Remainder, P2: 0.76 h
  Time-integrated activity coefficient, Salivary glands, P2: 0.020 h
  Time-integrated activity coefficient, Spleen, P2: 0.012 h
  Time-integrated activity coefficient, Urinary bladder contents, P2: 0.094 h
[5]; patient P3
  Time-integrated activity coefficient, Blood, P3: 0.36 h
  Time-integrated activity coefficient, Kidneys, P3: 0.19 h
  Time-integrated activity coefficient, Lacrimal glands, P3: 0.00038 h
  Time-integrated activity coefficient, Liver, P3: 0.22 h
  Time-integrated activity coefficient, Remainder, P3: 0.62 h
  Time-integrated activity coefficient, Salivary glands, P3: 0.021 h
  Time-integrated activity coefficient, Spleen, P3: 0.017 h
  Time-integrated activity coefficient, Urinary bladder contents, P3: 0.13 h
[5]; patient P4
  Time-integrated activity coefficient, Blood, P4: 0.22 h
  Time-integrated activity coefficient, Kidneys, P4: 0.23 h
  Time-integrated activity coefficient, Lacrimal glands, P4: 0.00093 h
  Time-integrated activity coefficient, Liver, P4: 0.23 h
  Time-integrated activity coefficient, Remainder, P4: 0.78 h
  Time-integrated activity coefficient, Salivary glands, P4: 0.017 h
  Time-integrated activity coefficient, Spleen, P4: 0.026 h
  Time-integrated activity coefficient, Urinary bladder contents, P4: 0.041 h
[5]; patient P5
  Time-integrated activity coefficient, Blood, P5: 0.25 h
  Time-integrated activity coefficient, Kidneys, P5: 0.19 h
  Time-integrated activity coefficient, Lacrimal glands, P5: 0.00052 h
  Time-integrated activity coefficient, Liver, P5: 0.19 h
  Time-integrated activity coefficient, Remainder, P5: 0.73 h
  Time-integrated activity coefficient, Salivary glands, P5: 0.030 h
  Time-integrated activity coefficient, Spleen, P5: 0.019 h
  Time-integrated activity coefficient, Urinary bladder contents, P5: 0.16 h
[5]; patient P6
  Time-integrated activity coefficient, Blood, P6: 0.28 h
  Time-integrated activity coefficient, Kidneys, P6: 0.26 h
  Time-integrated activity coefficient, Lacrimal glands, P6: 0.0002 h
  Time-integrated activity coefficient, Liver, P6: 0.31 h
  Time-integrated activity coefficient, Remainder, P6: 0.63 h
  Time-integrated activity coefficient, Salivary glands, P6: 0.017 h
  Time-integrated activity coefficient, Spleen, P6: 0.022 h
  Time-integrated activity coefficient, Urinary bladder contents, P6: 0.050 h
